Test results as given in US20110105397A1, “METHOD FOR TREATING HEART FAILURE WITH STRESSCOPIN-LIKE PEPTIDES” (priority 2009, published 2011).

Key:
[1] = test system: dogs with advanced heart failure; experiment: Hemodynamic, angiographic, echocardiographic profile in anaesthetized dogs with advanced heart failure, IV infusion; format: in vivo, dog
Description: The effects of h-SCP (SEQ ID NO:1) on cardiovascular function were also assessed in anaesthetized dogs with advanced, irreversible heart failure of ischemic etiology (Sabbah et al., 1991, Am. J. Physiol., vol. 260, pp. H1379-H1384; Sabbah et al., 1994, Circulation, vol. 98, pp. 2852-2859; Chandler et al., 2002, Circ. Res., vol. 91, pp. 278-280). Progressive, advanced heart failure was produced in mongrel dogs by multiple sequential intracoronary microembolization with polystyrene latex microspheres. Dose infusions of 2.2, 4.3, and 7.3 ng/kg/min were administered intravenously over 60 minutes just following or just prior to hemodynamic, angiographic, echocardiographic, and Doppler measurements using conventional hemodynamic, angiographic, echocardiographic, and radiographic methods. The h-SCP polypeptide (SEQ ID NO:1) produced dose- (infusion-) dependent increases in LVEF and SV and decreases in left ventricular end diastolic pressure (LVEDP), left ventricular pressure during isovolumic relaxation (LV-dP/dt), systemic vascular resistance (SVR), and left ventricular end-systolic volume (LVESV) that correlated with plasma concentration. No significant change in heart rate, peak systolic aortic blood pressure, LV+dP/dt, mean pulmonary artery pressure, mean pulmonary artery wedge pressure, right atrial pressure, or myocardial oxygen consumption were recorded following any of the 1 hour intravenous infusions (Table 18 and FIGS. 12 A & B). The improvement in LV systolic and diastolic function was not associated with the development of de novo ventricular arrhythmias.
In order to determine the threshold effective dose-infusion in dogs with advanced heart failure, a further study was performed at lower dose infusions. In addition, the opportunity was taken to explore whether the increase in LVEF produced by higher dose-infusions of 4.3 ng/kg/min would remain stable over a longer infusion period, i.e. 120 minutes.
In order to understand the potential cardiovascular effects of neutralizing antibody formation to h-SCP (SEQ ID NO:1), SV30 (SEQ ID No. 118), a competitive antagonist of CRHR2, was administered to dogs (N=4) with advanced heart failure. […] These experiments with SV30 indicate that baseline cardiovascular parameters in dogs with advanced heart failure were not dependent upon endogenous hormone stimulation of CRHR2. Similar findings have been reported in healthy conscious and anaesthetized rats (Gardiner et al., J. Pharmacol. Exp. Ther., 2007, vol 321, pp. 221-226).

[2] = test system: isolated rat aortic rings; experiment: Vascular smooth muscle relaxation, isolated rat aortic rings pre-contracted with phenylephrine
Excerpt: The ability of h-SCP (SEQ ID NO:1) to relax vascular smooth muscle was examined in isolated, rat aortic rings pre-contracted with phenylephrine (PE) (FIG. 8). […] The responses caused by h-SCP (SEQ ID NO:1) were inhibited by anti-sauvagine-30 (SEQ ID NO:118).

[3] = Table 18, IV infusion 2.2 ng/kg/min, 60 min
[4] = Table 18, IV infusion 4.3 ng/kg/min, 60 min
[5] = Table 18, IV infusion 7.3 ng/kg/min, 60 min
[6] = Table 19, IV infusion 0.22 ng/kg/min, 60 min
[7] = Table 19, IV infusion 0.43 ng/kg/min, 60 min
[8] = Table 19, IV infusion 4.3 ng/kg/min, 60 min
[9] = Table 19, IV infusion 4.3 ng/kg/min, 120 min
[10] = Table 20, SEQ ID NO: 1 4.3 ng/kg/min + AS-30

Substance: H-TKFTLSLDVPTNIMNLLFNIAKAKNLRAQAAANAHLMAQI-NH2 [SEQ ID NO: 1, TKFTLSLDVPTNIMNLLFNIAKAKNLRAQAAANAHLMAQI-NH2]
- -ESV [1, 3]: 46 ± 1.7 mL
- CO [1, 3]: 1.56 ± 0.11 L/min
- EDV [1, 3]: 66 ± 2.5 mL
- EF [1, 3]: 31 ± 0.5^+++,a,b %
- HR [1, 3]: 76 ± 2 beats/min
- LV Efficiency [1, 3]: 23.0 ± 3.1%
- LV+dP/dt (isovolumic contraction) [1, 3]: 1477 ± 104 mmHg/sec
- LVCBF (total left ventricular coronary blood flow) [1, 3]: 52 ± 5 mL/min
- LVEDP (left ventricular end diastolic pressure) [1, 3]: 13 ± 0.9^+ mmHg
- LV−dP/dt (isovolumic relaxation) [1, 3]: 1216 ± 44 mmHg/sec
- MPAP (mean pulmonary artery pressure) [1, 3]: 15 ± 0.5 mmHg
- MVO2 (myocardial oxygen consumption) [1, 3]: 191 ± 14 μmols/min
- PAWP (mean pulmonary artery wedge pressure) [1, 3]: 9.0 ± 0.6 mmHg
- PSAP [1, 3]: 90 ± 3 mmHg
- RAP (mean right atrial pressure) [1, 3]: 5.7 ± 0.5 mmHg
- SV [1, 3]: 20 ± 0.9^+ mL
- SVR (systemic vascular resistance) [1, 3]: 4414 ± 193 dynes-sec-cm^−5
- -ESV [1, 4]: 43 ± 1.7 mL
- CO [1, 4]: 1.61 ± 0.13 L/min
- EDV [1, 4]: 65 ± 2.5 mL
- EF [1, 4]: 33 ± 0.5^+++,c %
- HR [1, 4]: 73 ± 3 beats/min
- LV Efficiency [1, 4]: 26.0 ± 4.4%
- LV+dP/dt (isovolumic contraction) [1, 4]: 1400 ± 71 mmHg/sec
- LVCBF (total left ventricular coronary blood flow) [1, 4]: 57 ± 6 mL/min
- LVEDP (left ventricular end diastolic pressure) [1, 4]: 13 ± 0.4^+ mmHg
- LV−dP/dt (isovolumic relaxation) [1, 4]: 1094 ± 42^+ mmHg/sec
- MPAP (mean pulmonary artery pressure) [1, 4]: 15 ± 0.5 mmHg
- MVO2 (myocardial oxygen consumption) [1, 4]: 177 ± 19 μmols/min
- PAWP (mean pulmonary artery wedge pressure) [1, 4]: 10 ± 0.6 mmHg
- PSAP [1, 4]: 87 ± 2 mmHg
- RAP (mean right atrial pressure) [1, 4]: 5.4 ± 0.4 mmHg
- SV [1, 4]: 22 ± 0.9^++ mL
- SVR (systemic vascular resistance) [1, 4]: 4144 ± 243^+ dynes-sec-cm^−5
- -ESV [1, 5]: 41 ± 1.8^+ mL
- CO [1, 5]: 1.67 ± 0.09 L/min
- EDV [1, 5]: 64 ± 2.4 mL
- EF [1, 5]: 35 ± 0.9^+++ %
- HR [1, 5]: 74 ± 2 beats/min
- LV Efficiency [1, 5]: 23.3 ± 3.2%
- LV+dP/dt (isovolumic contraction) [1, 5]: 1398 ± 74 mmHg/sec
- LVCBF (total left ventricular coronary blood flow) [1, 5]: 59 ± 6 mL/min
- LVEDP (left ventricular end diastolic pressure) [1, 5]: 12 ± 0.6^++ mmHg
- LV−dP/dt (isovolumic relaxation) [1, 5]: 1112 ± 82^+ mmHg/sec
- MPAP (mean pulmonary artery pressure) [1, 5]: 14 ± 0.4 mmHg
- MVO2 (myocardial oxygen consumption) [1, 5]: 196 ± 18 μmols/min
- PAWP (mean pulmonary artery wedge pressure) [1, 5]: 9.0 ± 0.3 mmHg
- PSAP [1, 5]: 87 ± 2 mmHg
- RAP (mean right atrial pressure) [1, 5]: 5.0 ± 0.4 mmHg
- SV [1, 5]: 22 ± 0.9^++ mL
- SVR (systemic vascular resistance) [1, 5]: 3958 ± 182^++ dynes-sec-cm^−5
- CO [1, 6]: 1.37 ± 0.04 L/min
- HR [1, 6]: 75 ± 1.1 beats/min
- LV+dP/dt [1, 6]: 1842 ± 127 mmHg/sec
- LVEDP [1, 6]: 14 ± 1.1 mmHg
- LVEDV [1, 6]: 66 ± 1.5 mL
- LVEF [1, 6]: 28 ± 0.6%
- LVESV [1, 6]: 48 ± 1.2 mL
- LV−dP/dt [1, 6]: 1448 ± 155 mmHg/sec
- MPAP [1, 6]: 15 ± 0.7 mmHg
- PAWP [1, 6]: 10.1 ± 0.6 mmHg
- PSAP [1, 6]: 97 ± 3.3 mmHg
- SV [1, 6]: 18 ± 0.5 mL
- SVR [1, 6]: 4757 ± 287 dynes-sec-cm^−5
- CO [1, 7]: 1.50 ± 0.04 L/min
- HR [1, 7]: 77 ± 1.0 beats/min
- LV+dP/dt [1, 7]: 1691 ± 96 mmHg/sec
- LVEDP [1, 7]: 13 ± 1.4 mmHg
- LVEDV [1, 7]: 65 ± 1.1 mL
- LVEF [1, 7]: 30 ± 0.9%
- LVESV [1, 7]: 45 ± 1.2 mL
- LV−dP/dt [1, 7]: 1249 ± 120 mmHg/sec
- MPAP [1, 7]: 15 ± 0.8 mmHg
- PAWP [1, 7]: 9.6 ± 0.7 mmHg
- PSAP [1, 7]: 93 ± 3.6 mmHg
- SV [1, 7]: 19 ± 0.5 mL
- SVR [1, 7]: 4134 ± 195 dynes-sec-cm^−5
- CO [1, 8]: 1.68 ± 0.06^++,a,c L/min
- HR [1, 8]: 79 ± 2.0 beats/min
- LV+dP/dt [1, 8]: 1667 ± 88 mmHg/sec
- LVEDP [1, 8]: 12 + 1.4 mmHg
- LVEDV [1, 8]: 63 ± 1.3 mL
- LVEF [1, 8]: 34 ± 1.4^+++,b,e %
- LVESV [1, 8]: 42 ± 1.4^++,a mL
- LV−dP/dt [1, 8]: 1166 ± 82 mmHg/sec
- MPAP [1, 8]: 15 ± 0.8 mmHg
- PAWP [1, 8]: 9.0 ± 0.6 mmHg
- PSAP [1, 8]: 92 ± 4.1 mmHg
- SV [1, 8]: 21 ± 0.8^+++,a,c mL
- SVR [1, 8]: 3638 ± 191^+,d dynes-sec-cm^−5
- CO [1, 9]: 1.83 ± 0.09^+++,b,e L/min
- HR [1, 9]: 81 ± 3.6 beats/min
- LV+dP/dt [1, 9]: 1640 ± 88 mmHg/sec
- LVEDP [1, 9]: 12 ± 1.2 mmHg
- LVEDV [1, 9]: 62 ± 1.3 mL
- LVEF [1, 9]: 37 ± 1.2^+++,b,e %
- LVESV [1, 9]: 39 ± 1.4^+++,b,e mL
- LV−dP/dt [1, 9]: 1124 ± 92 mmHg/sec
- MPAP [1, 9]: 15 ± 0.9 mmHg
- PAWP [1, 9]: 9.4 ± 0.8 mmHg
- PSAP [1, 9]: 92 ± 4.3 mmHg
- SV [1, 9]: 23 ± 0.6^+++,a,e mL
- SVR [1, 9]: 3372 ± 238^++,a,c dynes-sec-cm^−5
- CO [1, 10]: 1.55 ± 0.08 L/min
- HR [1, 10]: 82 ± 4 beats/min
- LV+dP/dt [1, 10]: 1618 ± 79 mmHg/sec
- LVEDP [1, 10]: 15 ± 2 mmHg
- LVEDV [1, 10]: 68 ± 2.1 mL
- LVEF [1, 10]: 28 ± 0.5%
- LVESV [1, 10]: 49 ± 1.8 mL
- MPAP [1, 10]: 16 ± 0.8 mmHg
- PSAP [1, 10]: 90 ± 4 mmHg
- SV [1, 10]: 19 ± 0.4 mL
- infusion dose with minimal effect on left ventricular systolic and diastolic function ([1]; dogs with advanced heart failure, 60 minutes): 0.43 ng/kg/min
- fold less potent than h-UCN2 [2]: 10 fold
- pA50 of relaxation ([2]; rat aortic rings pre-contracted with phenylephrine): 6.05±0.12
